Patent US20030118985A1, “Mouse monoclonal antibody (5-21-3) to human immunodeficiency virus gp41 protein” (priority 1997, published 2003)
Entries after “also recorded” stand apart in the source; their conditions may differ.

Columns and labels:
[1] = tested on: monoclonal antibody 5-21-3; test: Immuno-dot blot of synthetic peptides with 5-21-3; assay type: binding, mouse; details: 25 ug/ml 5-21-3; peptide spotted on nitrocellulose
Description: (§1) The western Blot procedure described in Example 1 was employed for development of immuno-dot blots using synthetic peptides, except that synthetic peptides were fixed to nitrocellulose by direct application using Drummond lambda pipettes, and air dried prior to blocking with 20% fetal calf serum in PBS (pH 7.4).

[2] = tested on: monoclonal antibody 10-15-63; test: Immuno-dot blot of synthetic peptides with 10-15-63; assay type: binding, mouse; details: 25 ug/ml 10-15-63
Description: as §1

[3] = tested on: Rabbit (R) anti-P58-130 serum; test: Immuno-dot blot of synthetic peptides with rabbit anti-P58-130 serum; assay type: binding; details: 2% serum
Description: as §1

[4] = tested on: mouse (M) anti-rp41 serum; test: Immuno-dot blot of synthetic peptides with mouse anti-rp41 serum; assay type: binding; details: 2% serum
Description: as §1

[5] = tested on: monoclonal antibody 5-21-3; test: Immunoprecipitation of [125I] synthetic peptides by 5-21-3; assay type: binding, mouse; details: for SPECIFIC PRECIPITATION (CPM) by 5-21-3 / x-fold increase of specific over non-specific precipitation, 5-21-3: 5-21-3 10 μg/0.2 ml
Procedure: (§2) Synthetic peptides were radiolabeled with ^125I (Amersham) by the chloramine T method (N. M. Hunter, “Radioimmunoassay” in D. M. Weir, Ed., Handbook of Experimental Immunology, [Blackwell Scientific Publications, 1973]). Generally, 2-6 ul of 100 mCi/ml ^125I were added to 10-50 ug of peptide in PBS, pH 7.4. Approximately 10 ug of freshly prepared (1 mg/ml in PBS) chloramine T were added to the mixture maintained at 4° C. After 5 min., [^125I]peptide was separated from free ^125I by passage of the reaction mixture through a 3 ml (bed volume) column of Biogel P-6 or P-2, as required. Fractions (200 ul each) containing [^125I]peptide were pooled and diluted into PBS containing 20% fetal calf serum. Rough estimations of ^125I cpm bound to peptide were made by acid precipitation. An aliquot of labeled peptide was diluted into 1 ml of ice cold 50% trichloroacetic acid (TCA) overlaying a 0.45 um filter (made of mixed cellulose esters) set on a scintered glass filter connected to a vacuum apparatus. Precipitated protein was fixed onto the filter by application of vacuum, and filters were washed with ice-cold 50% TCA. Background cpm adhering non-specifically to the filter were estimated by repeating the procedure using a non-precipitating buffer. Amounts of peptide, ^125I, chloramine T, and composition of column eluting buffer were subject to change depending on conditions required to maintain solubility of each peptide.
(§3) Synthetic peptides radiolabeled with ^125I were diluted into PBS (pH 7.4) containing 0.1% Triton X-100 (or other detergents where indicated) and 1.0% BSA, to yield approximately 2.5-5×10^5 acid-precipitable cpm per 0.1 ml. Purified monoclonal IgG 5-21-3 and 10-15-63 were employed in the assay. Monoclonal antibodies were diluted into PBS containing 0.1% Triton X-100 (or other detergents where indicated), 1.0% BSA, and 2% normal mouse serum as a carrier immunoglobulin. Immune rabbit serum (anti-P58-130) was diluted appropriately into the same buffer except that normal rabbit serum (2%) was substituted for normal mouse serum as the carrier immunoglobulin. A reaction mixture comprising 0.1 ml [^125I] peptide (5×10^5 cpm/0.1 ml) and 0.1 ml diluted antibody was incubated 1 hr at 40° C., followed by addition of 0.1 ml of a precipitating antibody, either goat anti-mouse IgG, or goat anti-rabbit IgG, corresponding to the primary antibody. The reaction mixture was incubated 1 hr at 40° C. and then overnight at 4° C. […] Precipitation assays employing Protein A-Sepharose as the precipitating reagent were performed in a similar manner, except that normal sera were omitted from the reaction mixtures.

[6] = tested on: monoclonal antibody 10-15-63; test: Immunoprecipitation of [125I] synthetic peptides by 10-15-63; assay type: binding, mouse; details: for SPECIFIC PRECIPITATION (CPM) by 10-15-63 / x-fold increase of specific over non-specific precipitation, 10-15-63: 10-15-63 10 μg/0.2 ml
Procedure: as §2, §3

[7] = tested on: Rabbit (R) anti-P58-130 serum; test: Immunoprecipitation of [125I] synthetic peptides by rabbit anti-P58-130 serum; assay type: binding; details: for SPECIFIC PRECIPITATION (CPM) by RαP58-130 / x-fold increase of specific over non-specific precipitation, RαP58-130: rabbit anti-P58-130 serum 20 ul/0.2 ml
Procedure: as §2, §3

[8] = tested on: binding of antibody 5-21-3 to rp41; test: Binding inhibition assay: peptides inhibit binding of 5-21-3 to rp41; set-up: species or system HIV I
Procedure: Additional evidence for the conformationl nature of the 5-21-3 epitope was obtained using binding inhibition studies, in which synthetic peptides were ranked for their ability to inhibit binding of 5-21-3 to rp41. First, the Fab dimer of an anti-gp41 monoclonal antibody was prepared by conventional methods (Goding et al., supra). Then 100 ul of a 1 mg/ml solution of the Fab dimer in bicarbonate buffer (pH 9.6) was coated onto Immulon II microtiter plates for 1 hr at 37° C. After washing with PBS containing 0.05% Tween 20, the plates were overcoated with 200 ul of 1.0% ovalbumin in bicarbonate buffer (pH 9.6) for 1 hr at 30° C. After washing, 100 ul of rp41 enriched E. coli lysate (as described in Example 3), diluted appropriately in PBS containing 0.05% Tween 20, were allowed to bind to the Fab dimer for 2 hr at 30° C. The plates were washed and stored at 4° C.
Intact monoclonal antibody 5-21-3 IgG (purified from tissue culture fluid supporting growth of the cloned cell line 5-21-3) was titrated against the bound rp41 on the plate, and an antibody concentration was selected which yielded an A492 value of 2.0-3.0. Usually, 0.4 pmol (0.06 ug) of 5-21-3 IgG per microtiter well was employed in these assays. Stock solutions of 5-21-3 IgG were prepared in PBS containing 0.1% Triton X-100 and 0.1% SDS. Dilutions of synthetic peptides were made in the same buffer (SDS was included in these experiments to keep peptides soluble at high concentrations).
The binding inhibition assay was performed by combining 0.15 ml of 1.2 ug/ml 5-21-3 antibody stock solution with 0.15 ml of peptide at a selected peptide concentration, and incubating the reaction mixture 1 hr at room temp. Then 0.1 ml aliquots of each reaction mixture were added to each of two wells in the microtiter tray. After a 1 hr incubation at room temp., the plates were washed, and HRPO conjugated Goat anti-mouse IgG Fc was added for 1 hr at room temp. The plates were washed, and addition of OPD for color development identified the relative amounts of 5-21-3 bound to rp41 in the microtiter wells. The reaction was stopped by addition of 100 ul of 1N H2SO4, and the plates were read on a Dynatech II microtiter plate reader.

[9] = detergent-rich buffer, Protein A-Sepharose
[10] = PBS, 0.1% Triton X-100, 1.0% BSA, carrier serum, second antibody precipitation
[11] = second antibody precipitation, vs normal mouse IgG

Question: “H-TVWGIKELQARILAVERYLKDQQLLGIWGCSGKLICTTAVPWNASWSNKSLEQIWNNMTWMEWDREINNYTSL-OH [P58-130]” was tested. Which “immuno-dot blot reactivity with 5-21-3” value [1] did it give?
Answer: did not react

Question: And the “immuno-dot blot reactivity with 10-15-63” value [2]?
Answer: Little or no reactivity

Question: What about the “immuno-dot blot reactivity with rabbit anti-P58-130 serum” value [3] of the same substance?
Answer: Strong reactivities

Question: And the “immuno-dot blot reactivity with mouse anti-rp41 serum” value [4]?
Answer: Strong reactivities

Question: And the “binding of [125I]peptide by 5-21-3 (immunoprecipitation), in words” value [5]?
Answer: unable to bind

Question: And the “SPECIFIC PRECIPITATION (CPM) by 5-21-3” value ([5]; detergent-rich buffer (0.1% Triton X-100, 1.0% sodium deoxycholate, 0.1% SDS), Protein A-Sepharose)?
Answer: 0 CPM

Question: What about the “x-fold increase of specific over non-specific precipitation, 5-21-3” value [5, 9] of the same substance?
Answer: (<1) x-fold

Question: And the “SPECIFIC PRECIPITATION (CPM) by 10-15-63” value [6, 9]?
Answer: 0 CPM

Question: What about the “x-fold increase of specific over non-specific precipitation, 10-15-63” value [6, 9] of the same substance?
Answer: (<1) x-fold

Question: What about the “precipitation of [125I]peptide by rabbit anti-P58-130, in words” value [7] of the same substance?
Answer: strong precipitator

Question: What about the “SPECIFIC PRECIPITATION (CPM) by RαP58-130” value [7, 9] of the same substance?
Answer: 286,722 CPM

Question: What about the “x-fold increase of specific over non-specific precipitation, RαP58-130” value [7, 9] of the same substance?
Answer: (32) x-fold

Question: What about the “inhibition of 5-21-3 binding to rp41, in words” value [8] of the same substance?
Answer: no detectable inhibition

Question: For “ARILAVERYLKDQQLLGIWGCSGKLICTTAVPWNASWSNKSLEQIWNNMTWMEWDREINNYSLIHSLIEESQNQQEKNELLELNK [P67-154]”, which “immuno-dot blot reactivity with 5-21-3” value [1] is on record?
Answer: very strong reaction

Question: What about the “immuno-dot blot reactivity with 10-15-63” value [2] of the same substance?
Answer: Little or no reactivity

Question: And the “immuno-dot blot reactivity with rabbit anti-P58-130 serum” value [3]?
Answer: Strong reactivities

Question: And the “immuno-dot blot reactivity with mouse anti-rp41 serum” value [4]?
Answer: Strong reactivities

Question: What about the “binding of [125I]peptide by 5-21-3 (immunoprecipitation), in words” value [5] of the same substance?
Answer: readily bound

Question: And the “SPECIFIC PRECIPITATION (CPM)” value ([5]; 5-21-3 1.0 μg/ml final)?
Answer: 165,781 CPM

Question: And the “x-fold increase of specific over non-specific precipitation” value ([5]; 5-21-3 1.0 μg/ml final)?
Answer: (3.6) x-fold

Question: What about the “SPECIFIC PRECIPITATION (CPM) by 5-21-3” value [5, 10] of the same substance?
Answer: 479,207 CPM

Question: What about the “x-fold increase of specific over non-specific precipitation, 5-21-3” value [5, 11] of the same substance?
Answer: (16) x-fold

Question: What about the “SPECIFIC PRECIPITATION (CPM)” value ([5]; 5-21-3 10.0 μg/ml final) of the same substance?
Answer: 441,887 CPM

Question: What about the “x-fold increase of specific over non-specific precipitation” value ([5]; 5-21-3 10.0 μg/ml final) of the same substance?
Answer: (8.5 x-fold

Question: What about the “SPECIFIC PRECIPITATION (CPM)” value ([5]; 5-21-3 100.0 μg/ml final) of the same substance?
Answer: 659,045 CPM

Question: What about the “x-fold increase of specific over non-specific precipitation” value ([5]; 5-21-3 100.0 μg/ml final) of the same substance?
Answer: (8.0) x-fold

Question: And the “5-21-3 concentration required to demonstrate binding of the peptide” value ([5]; immunoprecipitation, Table 5)?
Answer: ≤ 1 µg/mL

Question: And the “SPECIFIC PRECIPITATION (CPM)” value ([6]; 10-15-63 1.0 μg/ml final)?
Answer: 0 CPM

Question: And the “x-fold increase of specific over non-specific precipitation” value ([6]; 10-15-63 1.0 μg/ml final)?
Answer: (0) x-fold

Question: What about the “SPECIFIC PRECIPITATION (CPM) by 10-15-63” value [6, 10] of the same substance?
Answer: 9713 CPM

Question: And the “x-fold increase of specific over non-specific precipitation, 10-15-63” value [6, 11]?
Answer: (1.3) x-fold

Question: And the “SPECIFIC PRECIPITATION (CPM)” value ([6]; 10-15-63 10.0 μg/ml final)?
Answer: 0 CPM

Question: And the “x-fold increase of specific over non-specific precipitation” value ([6]; 10-15-63 10.0 μg/ml final)?
Answer: (0) x-fold

Question: And the “SPECIFIC PRECIPITATION (CPM)” value ([6]; 10-15-63 100.0 μg/ml final)?
Answer: 0 CPM

Question: What about the “x-fold increase of specific over non-specific precipitation” value ([6]; 10-15-63 100.0 μg/ml final) of the same substance?
Answer: (0) x-fold

Question: What about the “precipitation of [125I]peptide by rabbit anti-P58-130, in words” value [7] of the same substance?
Answer: strong precipitator

Question: And the “SPECIFIC PRECIPITATION (CPM) by RαP58-130” value ([7]; second antibody precipitation)?
Answer: 479,343 CPM

Question: What about the “x-fold increase of specific over non-specific precipitation, RαP58-130” value ([7]; second antibody precipitation, vs normal rabbit serum) of the same substance?
Answer: (4.4) x-fold

Question: What about the “inhibition of 5-21-3 binding to rp41, in words” value [8] of the same substance?
Answer: potent inhibitor; also recorded: most potent inhibitor

Question: And the “Molar Ratio at 50% inhibition of 5-21-3 binding” value ([8]; mean of two experiments, 0.4 pmol 5-21-3 IgG per well)?
Answer: 72.7 pmoles peptide/pmoles 5-21-3
